Results reported in ChEMBL document CHEMBL1128821, “Evaluation of differential hypoxic cytotoxicity and electrochemical studies of nitro 5-deazaflavins” (Bioorg Med Chem Lett, 1995).

Tests used:
[1] = test system: V79; experiment: Differential hypoxic cytotoxicity towards chinese hamster cells (V79) using MTT assay under aerobic conditions; format: functional, cell-based; conditions: Cricetulus griseus
[2] = test system: V79; experiment: Differential hypoxic cytotoxicity towards chinese hamster cells (V79) using MTT assay under anaerobic conditions; format: functional, cell-based; conditions: Cricetulus griseus

| SMILES | IC50 [1] [µM] | IC50 [2] [µM] |
| --- | --- | --- |
| CCCCCCCCCCCCn1c2nc(=O)[nH]c(=O)c-2cc2cc([N+](=O)[O-])ccc21 | 16 | 22 |
| CCCCCCCCn1c2nc(=O)n(-c3ccccc3)c(=O)c-2cc2ccc([N+](=O)[O-])cc21 | 6.1 | 1.2 |
| CCCCCCCCCCCCn1c2nc(=O)[nH]c(=O)c-2cc2ccc([N+](=O)[O-])cc21 | 300 | 190 |
| CCCCCCCCn1c2nc(=O)n(-c3ccccc3)c(=O)c-2cc2ccccc21 | > 1000 | > 1000 |
| CCCCCCCCn1c2nc(=O)n(-c3ccccc3)c(=O)c-2cc2cccc([N+](=O)[O-])c21 | 1.7 | 3.7 |
| CCCCCCCCCCCCn1c2nc(=O)n(C)c(=O)c-2cc2ccc([N+](=O)[O-])cc21 | 130 | 61 |
| CCCCCCCCCCCCn1c2nc(=O)[nH]c(=O)c-2cc2cccc([N+](=O)[O-])c21 | 1.9 | 3.6 |
| CCCCCCCCn1c2nc(=O)n(-c3ccccc3)c(=O)c-2cc2c([N+](=O)[O-])cccc21 | 3.6 | 0.56 |
| CCCCCCCCCCCCn1c2nc(=O)[nH]c(=O)c-2cc2c([N+](=O)[O-])cccc21 | 4.3 | 1.1 |
| CCCCCCCCCCCCn1c2nc(=O)n(C)c(=O)c-2cc2cc([N+](=O)[O-])ccc21 | > 1000 | > 1000 |
| CCCCCCCCCCCCn1c2nc(=O)[nH]c(=O)c-2cc2ccccc21 | > 1000 | > 1000 |
| CCCCCCCCCCCCn1c2nc(=O)n(C)c(=O)c-2cc2cccc([N+](=O)[O-])c21 | > 1000 | > 1000 |
| CCCCCCCCCCCCn1c2nc(=O)n(C)c(=O)c-2cc2c([N+](=O)[O-])cccc21 | 7.2 | 2.9 |
| CCCCCCCCn1c2nc(=O)n(-c3ccccc3)c(=O)c-2cc2cc([N+](=O)[O-])ccc21 | 27 | 19 |
| CCCCCCCCCCCCn1c2nc(=O)n(C)c(=O)c-2cc2ccccc21 | > 1000 | > 1000 |
| NC(=O)N/N=C/c1ccc([N+](=O)[O-])o1 [NITROFURAZONE] | 740 | 270 |
